{
  "source": "paper PMC12120022",
  "about": "“Discovery and chemical optimisation of a potent, Bi-cyclic antimicrobial inhibitor of Escherichia coli PBP3” (Communications Biology, 2025)",
  "note": "Where a SMILES comes first, the peptide text is derived from it.",
  "data": [
    {"molecular_target": "T1, EcPBP3 (Escherichia coli, UniProt P0AD68)", "T1 construct": "For assays, selections and SPR a construct with residues 60–588 which has the N-terminal domain, but not the transmembrane helix, was used; made in house", "T1 sequence (P0AD68 60-588)": "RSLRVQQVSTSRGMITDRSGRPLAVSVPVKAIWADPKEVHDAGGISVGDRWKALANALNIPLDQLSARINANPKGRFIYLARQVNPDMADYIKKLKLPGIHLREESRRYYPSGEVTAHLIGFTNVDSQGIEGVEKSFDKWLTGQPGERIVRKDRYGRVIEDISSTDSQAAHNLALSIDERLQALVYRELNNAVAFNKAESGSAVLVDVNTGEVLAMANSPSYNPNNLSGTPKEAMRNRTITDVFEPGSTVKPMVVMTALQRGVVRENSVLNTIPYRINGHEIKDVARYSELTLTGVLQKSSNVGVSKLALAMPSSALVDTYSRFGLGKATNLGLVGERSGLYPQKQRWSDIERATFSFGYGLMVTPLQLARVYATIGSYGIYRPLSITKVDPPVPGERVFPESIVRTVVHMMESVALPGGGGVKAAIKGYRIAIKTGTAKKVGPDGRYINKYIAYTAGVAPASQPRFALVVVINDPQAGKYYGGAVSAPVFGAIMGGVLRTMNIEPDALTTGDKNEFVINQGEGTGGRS", "assay": "Fluorescence polarisation competition assay with fluorescent Bicycle tracer (tracer 1 / BCY12820)", "assay_type": "binding", "conditions": "protein 9.4 nM sets sensitivity limit, top concentration 5 µM, read-out: Ki (nM) by fluorescence polarisation with tracer 1 (BCY12820 as tracer), Geometric mean (Lower 95% CI; Upper 95% CI, n=number of values)", "experimental": "Competition fluorescence polarisation assays were run by observing the fluorescence polarisation of a fluorescent “tracer” Bicycle molecule which competes against an unlabelled peptide for binding to the EcPBP3 target. 10 µL of protein (9.4 nM) was mixed with either 5 µL of peptide or 5 µL of buffer and then the assay was initiated by the addition of 10 µL of tracer (1 nM) (final volume 25 µL), in a black 384 low bind, low volume plate (Corning). The buffer was 10 mM HEPES (Sigma), 2% (v/v) glycerol (Sigma), 300 mM NaCl (Sigma), adjusted to pH 8. The plate was incubated for 1 h at 25 °C and then read in a PHERAstar FS (BMG) using with an “FP 485 520 520” optic module (excitation 485 nm, emission 520 nm). The gain was determined immediately prior to the read on a tracer-only well.\nDotmatics (Dotmatics) workflows performing the above calculations were used to process the data. Values quoted are the geometric means of at least 2 repeats.", "units": {"Ki": "nM"}, "values": [
      {"compound": "CC(C)[C@@H]1NC(=O)[C@H](Cc2c[nH]c3ccccc23)NC(=O)[C@@H]2CCCN2C(=O)[C@@H]2CSCCC(=O)N3CN(CN(C3)C(=O)CCSC[C@H](NC(=O)[C@H](C)N)C(=O)N[C@@H](CO)C(=O)N[C@@H](Cc3ccccc3)C(=O)N[C@@H](Cc3c[nH]cn3)C(=O)N[C@@H](CCCCNC(=N)N)C(=O)N2)C(=O)CCSC[C@@H](C(=O)N[C@@H](C)C(N)=O)NC(=O)CNC(=O)[C@H](CCC(=O)O)NC1=O", "note": "[Peptide 37] (HELM PEPTIDE1{A.C.S.F.H.[N=C(N)NCCCC[C@H](N[*:1])C(=O)[*:2]].C.P.W.V.E.G.C.A.[am]}|CHEM1{[O=C(CC[*:1])N1CN(C(=O)CC[*:2])CN(C(=O)CC[*:3])C1]}$PEPTIDE1,CHEM1,2:R3-1:R1|PEPTIDE1,CHEM1,7:R3-1:R2|PEPTIDE1,CHEM1,13:R3-1:R3$$$V2.0)", "Ki": 31.5},
      {"compound": "CC(C)[C@@H]1NC(=O)[C@H](Cc2c[nH]c3ccccc23)NC(=O)[C@@H]2CCCN2C(=O)[C@@H]2CSCCC(=O)N3CN(CN(C3)C(=O)CCSC[C@H](NC(=O)[C@H](C)N)C(=O)N[C@@H](CO)C(=O)N[C@@H](Cc3ccccc3)C(=O)N3CCC[C@H]3C(=O)N[C@@H](CCCCNC(=N)N)C(=O)N2)C(=O)CCSC[C@@H](C(=O)N[C@@H](C)C(N)=O)NC(=O)CNC(=O)[C@@H]2CCCN2C1=O", "note": "[Peptide 47] (HELM PEPTIDE1{A.C.S.F.P.[N=C(N)NCCCC[C@H](N[*:1])C(=O)[*:2]].C.P.W.V.P.G.C.A.[am]}|CHEM1{[O=C(CC[*:1])N1CN(C(=O)CC[*:2])CN(C(=O)CC[*:3])C1]}$PEPTIDE1,CHEM1,2:R3-1:R1|PEPTIDE1,CHEM1,7:R3-1:R2|PEPTIDE1,CHEM1,13:R3-1:R3$$$V2.0)", "Ki": 18},
      {"compound": "CC(C)[C@@H]1NC(=O)[C@H](Cc2ccc(O)cc2)NC(=O)[C@@H]2CCCN2C(=O)[C@@H]2CSCCC(=O)N3CN(CN(C3)C(=O)CCSC[C@H](NC(=O)[C@H](C)N)C(=O)N[C@@H](CO)C(=O)N[C@@H](Cc3ccccc3)C(=O)N3CCC[C@H]3C(=O)N[C@@H](CCCCNC(=N)N)C(=O)N2)C(=O)CCSC[C@@H](C(=O)N[C@@H](C)C(N)=O)NC(=O)CNC(=O)[C@H](CCC(=O)O)NC1=O", "note": "[Peptide 42] (HELM PEPTIDE1{A.C.S.F.P.[N=C(N)NCCCC[C@H](N[*:1])C(=O)[*:2]].C.P.Y.V.E.G.C.A.[am]}|CHEM1{[O=C(CC[*:1])N1CN(C(=O)CC[*:2])CN(C(=O)CC[*:3])C1]}$PEPTIDE1,CHEM1,2:R3-1:R1|PEPTIDE1,CHEM1,7:R3-1:R2|PEPTIDE1,CHEM1,13:R3-1:R3$$$V2.0)", "Ki": 209},
      {"compound": "CC(C)[C@@H]1NC(=O)[C@H](Cc2c[nH]c3ccccc23)NC(=O)[C@@H]2CCCN2C(=O)[C@@H]2CSCCC(=O)N3CN(CN(C3)C(=O)CCSC[C@H](NC(=O)[C@H](C)N)C(=O)N[C@@H](CO)C(=O)N[C@@H](Cc3ccccc3)C(=O)NCC(=O)N[C@@H](CCCCNC(=N)N)C(=O)N2)C(=O)CCSC[C@@H](C(=O)N[C@@H](C)C(N)=O)NC(=O)CNC(=O)[C@H](CCC(=O)O)NC1=O", "note": "[Peptide 33] (HELM PEPTIDE1{A.C.S.F.G.[N=C(N)NCCCC[C@H](N[*:1])C(=O)[*:2]].C.P.W.V.E.G.C.A.[am]}|CHEM1{[O=C(CC[*:1])N1CN(C(=O)CC[*:2])CN(C(=O)CC[*:3])C1]}$PEPTIDE1,CHEM1,2:R3-1:R1|PEPTIDE1,CHEM1,7:R3-1:R2|PEPTIDE1,CHEM1,13:R3-1:R3$$$V2.0)", "Ki": 53.5},
      {"compound": "CC(C)[C@@H]1NC(=O)[C@H](Cc2c[nH]c3ccccc23)NC(=O)[C@@H]2CCCN2C(=O)[C@@H]2CSCCC(=O)N3CN(CN(C3)C(=O)CCSC[C@H](NC(=O)[C@H](C)N)C(=O)N[C@@H](CO)C(=O)N[C@@H](Cc3c[nH]cn3)C(=O)N3CCC[C@H]3C(=O)N[C@@H](CCCCNC(=N)N)C(=O)N2)C(=O)CCSC[C@@H](C(=O)N[C@@H](C)C(N)=O)NC(=O)CNC(=O)[C@H](CCC(=O)O)NC1=O", "note": "[Peptide 32] (HELM PEPTIDE1{A.C.S.H.P.[N=C(N)NCCCC[C@H](N[*:1])C(=O)[*:2]].C.P.W.V.E.G.C.A.[am]}|CHEM1{[O=C(CC[*:1])N1CN(C(=O)CC[*:2])CN(C(=O)CC[*:3])C1]}$PEPTIDE1,CHEM1,2:R3-1:R1|PEPTIDE1,CHEM1,7:R3-1:R2|PEPTIDE1,CHEM1,13:R3-1:R3$$$V2.0)", "Ki": 115},
      {"compound": "CC(C)[C@@H]1NC(=O)[C@H](Cc2c[nH]c3ccccc23)NC(=O)CNC(=O)[C@@H]2CSCCC(=O)N3CN(CN(C3)C(=O)CCSC[C@H](NC(=O)[C@H](C)N)C(=O)N[C@@H](CO)C(=O)N[C@@H](Cc3ccccc3)C(=O)N3CCC[C@H]3C(=O)N[C@@H](CCCCNC(=N)N)C(=O)N2)C(=O)CCSC[C@@H](C(=O)N[C@@H](C)C(N)=O)NC(=O)CNC(=O)[C@H](CCC(=O)O)NC1=O", "note": "[Peptide 41] (HELM PEPTIDE1{A.C.S.F.P.[N=C(N)NCCCC[C@H](N[*:1])C(=O)[*:2]].C.G.W.V.E.G.C.A.[am]}|CHEM1{[O=C(CC[*:1])N1CN(C(=O)CC[*:2])CN(C(=O)CC[*:3])C1]}$PEPTIDE1,CHEM1,2:R3-1:R1|PEPTIDE1,CHEM1,7:R3-1:R2|PEPTIDE1,CHEM1,13:R3-1:R3$$$V2.0)", "Ki": "> 5000"},
      {"compound": "C[C@H](N)C(=O)N[C@H]1CSCCC(=O)N2CN3CN(C2)C(=O)CCSC[C@H](NC(=O)[C@H](CCCCNC(=N)N)NC(=O)[C@@H]2CCCN2C(=O)[C@H](Cc2ccccc2)NC(=O)[C@H](CO)NC1=O)C(=O)N1CCC[C@H]1C(=O)N[C@@H](Cc1c[nH]c2ccccc12)C(=O)N[C@@H]([C@@H](C)O)C(=O)N[C@@H](CCC(=O)O)C(=O)NCC(=O)N[C@H](C(=O)N[C@@H](C)C(N)=O)CSCCC3=O", "note": "[Peptide 46] (HELM PEPTIDE1{A.C.S.F.P.[N=C(N)NCCCC[C@H](N[*:1])C(=O)[*:2]].C.P.W.T.E.G.C.A.[am]}|CHEM1{[O=C(CC[*:1])N1CN(C(=O)CC[*:2])CN(C(=O)CC[*:3])C1]}$PEPTIDE1,CHEM1,2:R3-1:R1|PEPTIDE1,CHEM1,7:R3-1:R2|PEPTIDE1,CHEM1,13:R3-1:R3$$$V2.0)", "Ki": 15.5},
      {"compound": "CC(C)[C@@H]1NC(=O)[C@H](Cc2c[nH]c3ccccc23)NC(=O)[C@@H]2CCCN2C(=O)[C@@H]2CSCCC(=O)N3CN(CN(C3)C(=O)CCSC[C@@H](C(=O)N[C@@H](C)C(N)=O)NC(=O)[C@H](Cc3c[nH]cn3)NC(=O)[C@H](CCC(=O)O)NC1=O)C(=O)CCSC[C@H](NC(=O)[C@H](C)N)C(=O)N[C@@H](CO)C(=O)N[C@@H](Cc1ccccc1)C(=O)N1CCC[C@H]1C(=O)N[C@@H](CCCCNC(=N)N)C(=O)N2", "note": "[Peptide 53] (HELM PEPTIDE1{A.C.S.F.P.[N=C(N)NCCCC[C@H](N[*:1])C(=O)[*:2]].C.P.W.V.E.H.C.A.[am]}|CHEM1{[O=C(CC[*:1])N1CN(C(=O)CC[*:2])CN(C(=O)CC[*:3])C1]}$PEPTIDE1,CHEM1,2:R3-1:R1|PEPTIDE1,CHEM1,7:R3-1:R2|PEPTIDE1,CHEM1,13:R3-1:R3$$$V2.0)", "Ki": "< 9"},
      {"compound": "CC(C)[C@@H]1NC(=O)[C@H](Cc2c[nH]c3ccccc23)NC(=O)[C@@H]2CCCN2C(=O)[C@@H]2CSCCC(=O)N3CN(CN(C3)C(=O)CCSC[C@H](NC(=O)[C@H](C)N)C(=O)N[C@@H](CC(N)=O)C(=O)N[C@@H](Cc3ccccc3)C(=O)N3CCC[C@H]3C(=O)N[C@@H](CCCCNC(=N)N)C(=O)N2)C(=O)CCSC[C@@H](C(=O)N[C@@H](C)C(N)=O)NC(=O)CNC(=O)[C@H](CCC(=O)O)NC1=O", "note": "[Peptide 29] (HELM PEPTIDE1{A.C.N.F.P.[N=C(N)NCCCC[C@H](N[*:1])C(=O)[*:2]].C.P.W.V.E.G.C.A.[am]}|CHEM1{[O=C(CC[*:1])N1CN(C(=O)CC[*:2])CN(C(=O)CC[*:3])C1]}$PEPTIDE1,CHEM1,2:R3-1:R1|PEPTIDE1,CHEM1,7:R3-1:R2|PEPTIDE1,CHEM1,13:R3-1:R3$$$V2.0)", "Ki": "< 9"},
      {"compound": "CC(C)[C@@H]1NC(=O)[C@H](Cc2c[nH]c3ccccc23)NC(=O)[C@@H]2CCCN2C(=O)[C@@H]2CSCCC(=O)N3CN(CN(C3)C(=O)CCSC[C@@H](C(=O)N[C@@H](C)C(N)=O)NC(=O)[C@H](CC(N)=O)NC(=O)[C@H](CCC(=O)O)NC1=O)C(=O)CCSC[C@H](NC(=O)[C@H](C)N)C(=O)N[C@@H](CO)C(=O)N[C@@H](Cc1ccccc1)C(=O)N1CCC[C@H]1C(=O)N[C@@H](CCCCNC(=N)N)C(=O)N2", "note": "[Peptide 52] (HELM PEPTIDE1{A.C.S.F.P.[N=C(N)NCCCC[C@H](N[*:1])C(=O)[*:2]].C.P.W.V.E.N.C.A.[am]}|CHEM1{[O=C(CC[*:1])N1CN(C(=O)CC[*:2])CN(C(=O)CC[*:3])C1]}$PEPTIDE1,CHEM1,2:R3-1:R1|PEPTIDE1,CHEM1,7:R3-1:R2|PEPTIDE1,CHEM1,13:R3-1:R3$$$V2.0)", "Ki": "< 9"},
      {"compound": "CC[C@H](C)[C@@H]1NC(=O)[C@H](Cc2c[nH]c3ccccc23)NC(=O)[C@@H]2CCCN2C(=O)[C@@H]2CSCCC(=O)N3CN(CN(C3)C(=O)CCSC[C@H](NC(=O)[C@H](C)N)C(=O)N[C@@H](CO)C(=O)N[C@@H](Cc3ccccc3)C(=O)N3CCC[C@H]3C(=O)N[C@@H](CCCCNC(=N)N)C(=O)N2)C(=O)CCSC[C@@H](C(=O)N[C@@H](C)C(N)=O)NC(=O)CNC(=O)[C@H](CCC(=O)O)NC1=O", "note": "[Peptide 45] (HELM PEPTIDE1{A.C.S.F.P.[N=C(N)NCCCC[C@H](N[*:1])C(=O)[*:2]].C.P.W.I.E.G.C.A.[am]}|CHEM1{[O=C(CC[*:1])N1CN(C(=O)CC[*:2])CN(C(=O)CC[*:3])C1]}$PEPTIDE1,CHEM1,2:R3-1:R1|PEPTIDE1,CHEM1,7:R3-1:R2|PEPTIDE1,CHEM1,13:R3-1:R3$$$V2.0)", "Ki": "< 9"}
    ]}
  ]
}
